Columns and labels:
[1] = obtained by our previous pharmacological experiment; cited from earlier work
[2] = Stability of alnustone in rat plasma and tissue homogenates (QC samples); assay type: in vitro ADME, rats; details: in % (unit assumed)
Procedure: The calibration standards were prepared by spiking a certain volume of blank plasma or blank tissue homogenates with appropriate amounts of working solutions to yield a final concentration range from 1 to 2000 ng/mL. The effective concentrations of alnustone were 1, 5, 10, 40, 160, 200, 800, 2000 ng/mL for the plasma samples and tissue homogenates samples (heart, liver, spleen, lung, kidney, brain, stomach, intestine). […]
The stability tests involved the following four conditions. The short-term stability study was examined by analyzing samples at room temperature for 4 h. The long-term stability study was performed by analyzing samples stored at −75 °C for 1 month. For the freeze-thaw stability study, the samples were analyzed after three freeze/thaw cycles (−75 °C to 25 °C). The post-preparative storage stability was assessed by analyzing the samples left in autosampler vials at 4 °C for 24 h. The stability analysis was performed using three aliquots of each QC samples at three different concentrations. The samples were considered stable if the assay values were within the acceptable limits of accuracy (±15% RE) and precision (≤15% RSD).

[3] = Brain homogenate, QC 1600 ng/mL
[4] = Heart homogenate, QC 1600 ng/mL
[5] = Intestine homogenate, QC 1 ng/mL
[6] = Intestine homogenate, QC 5 ng/mL
[7] = Intestine homogenate, QC 100 ng/mL
[8] = Intestine homogenate, QC 1600 ng/mL
[9] = Kidney homogenate, QC 100 ng/mL
[10] = Kidney homogenate, QC 1600 ng/mL
[11] = Liver homogenate, QC 1600 ng/mL
[12] = Spleen homogenate, QC 100 ng/mL
[13] = Spleen homogenate, QC 1600 ng/mL

In the case of `O=C(/C=C/C=C/c1ccccc1)CCc1ccccc1` [alnustone, Alnustone], the LD50 [1] is listed as 200 mg/kg, the “Stability: Autosampler 4 °C for 24 h” value ([2]; Brain homogenate, QC 1 ng/mL) is listed as 109.2 ± 6.7 and the “Stability: Short-Term (at Room Temperature for 4 h)” value (shortened to “Stability: Short-Term”) ([2]; Brain homogenate, QC 1 ng/mL) is listed as 110.6 ± 5.8. The “Stability: Storage at −75°C for 30 d” value ([2]; Brain homogenate, QC 1 ng/mL) was 103.8 ± 4.1, the “Stability: Three Freeze-Thraw Cycles” value ([2]; Brain homogenate, QC 1 ng/mL) was 86.5 ± 6.1 and the “Stability: Autosampler 4 °C for 24 h” value ([2]; Brain homogenate, QC 5 ng/mL) was 104.9 ± 7.0. For the same molecule, the “Stability: Short-Term” value ([2]; Brain homogenate, QC 5 ng/mL) was 109.0± 4.4, the “Stability: Storage at −75°C for 30 d” value ([2]; Brain homogenate, QC 5 ng/mL) was 108.9 ± 3.8 and the “Stability: Three Freeze-Thraw Cycles” value ([2]; Brain homogenate, QC 5 ng/mL) was 89.2 ± 4.6. The “Stability: Autosampler 4 °C for 24 h” value ([2]; Brain homogenate, QC 100 ng/mL) was 95.4 ± 5.7, the “Stability: Short-Term” value ([2]; Brain homogenate, QC 100 ng/mL) was 99.3 ± 7.5 and the “Stability: Storage at −75°C for 30 d” value ([2]; Brain homogenate, QC 100 ng/mL) was 90.2 ± 7.4. The “Stability: Three Freeze-Thraw Cycles” value ([2]; Brain homogenate, QC 100 ng/mL) was 98.0 ± 8.1, the “Stability: Autosampler 4 °C for 24 h” value [2, 3] was 104.2 ± 4.9 and the “Stability: Short-Term” value [2, 3] was 96.3 ± 7.4. The “Stability: Storage at −75°C for 30 d” value [2, 3] was 112.3 ± 8.9, the “Stability: Three Freeze-Thraw Cycles” value [2, 3] was 110.2 ± 6.8 and the “Stability: Autosampler 4 °C for 24 h” value ([2]; Heart homogenate, QC 100 ng/mL) was 89.0 ± 3.4. For the same molecule, the “Stability: Storage at −75°C for 30 d” value ([2]; Heart homogenate, QC 100 ng/mL) was 112.4 ± 4.0, the “Stability: Three Freeze-Thraw Cycles” value ([2]; Heart homogenate, QC 100 ng/mL) was 104.8 ± 6.6 and the “Stability: Autosampler 4 °C for 24 h” value [2, 4] was 90.3 ± 5.2. The “Stability: Short-Term” value [2, 4] was 91.8 ± 5.8, the “Stability: Storage at −75°C for 30 d” value [2, 4] was 95.6 ± 5.4 and the “Stability: Three Freeze-Thraw Cycles” value [2, 4] was 95.3 ± 9.0. The “Stability: Autosampler 4 °C for 24 h” value [2, 5] was 90.0 ± 5.7, the “Stability: Short-Term” value [2, 5] was 89.6 ± 8.1 and the “Stability: Storage at −75°C for 30 d” value [2, 5] was 96.5 ± 5.7. For the same molecule, the “Stability: Three Freeze-Thraw Cycles” value [2, 5] was 113.7 ± 8.7, the “Stability: Autosampler 4 °C for 24 h” value [2, 6] was 90.9 ± 5.0 and the “Stability: Short-Term” value [2, 6] was 95.8 ± 7.7. The “Stability: Storage at −75°C for 30 d” value [2, 6] was 92.6 ± 3.7, the “Stability: Three Freeze-Thraw Cycles” value [2, 6] was 108.7 ± 9.4 and the “Stability: Autosampler 4 °C for 24 h” value [2, 7] was 98.0 ± 4.9. The “Stability: Short-Term” value [2, 7] was 95.3 ± 6.7, the “Stability: Storage at −75°C for 30 d” value [2, 7] was 114.4 ± 4.9 and the “Stability: Three Freeze-Thraw Cycles” value [2, 7] was 96.9 ± 3.8. For the same molecule, the “Stability: Autosampler 4 °C for 24 h” value [2, 8] was 103.0 ± 8.4, the “Stability: Short-Term” value [2, 8] was 105.9 ± 7.1 and the “Stability: Storage at −75°C for 30 d” value [2, 8] was 107.0 ± 4.3. For the same molecule, the “Stability: Three Freeze-Thraw Cycles” value [2, 8] was 113.6 ± 2.8, the “Stability: Autosampler 4 °C for 24 h” value ([2]; Kidney homogenate, QC 1 ng/mL) was 116.5 ± 8.0 and the “Stability: Short-Term” value ([2]; Kidney homogenate, QC 1 ng/mL) was 107.8 ± 7.5. The “Stability: Storage at −75°C for 30 d” value ([2]; Kidney homogenate, QC 1 ng/mL) was 89.8 ± 8.1, the “Stability: Three Freeze-Thraw Cycles” value ([2]; Kidney homogenate, QC 1 ng/mL) was 93.7 ± 7.0 and the “Stability: Autosampler 4 °C for 24 h” value ([2]; Kidney homogenate, QC 5 ng/mL) was 114.1 ± 7.4. For the same molecule, the “Stability: Short-Term” value ([2]; Kidney homogenate, QC 5 ng/mL) was 110.7 ± 6.6, the “Stability: Storage at −75°C for 30 d” value ([2]; Kidney homogenate, QC 5 ng/mL) was 88.5 ± 6.4 and the “Stability: Three Freeze-Thraw Cycles” value ([2]; Kidney homogenate, QC 5 ng/mL) was 95.7 ± 5.7. The “Stability: Autosampler 4 °C for 24 h” value [2, 9] was 108.0 ± 5.7, the “Stability: Short-Term” value [2, 9] was 109.7 ± 8.3 and the “Stability: Storage at −75°C for 30 d” value [2, 9] was 111.0 ± 7.5. For the same molecule, the “Stability: Three Freeze-Thraw Cycles” value [2, 9] was 90.9 ± 7.0, the “Stability: Autosampler 4 °C for 24 h” value [2, 10] was 95.9 ± 6.0 and the “Stability: Short-Term” value [2, 10] was 100.7 ± 7.0. For the same molecule, the “Stability: Storage at −75°C for 30 d” value [2, 10] was 100.5 ± 10.6, the “Stability: Three Freeze-Thraw Cycles” value [2, 10] was 112.5 ± 5.2 and the “Stability: Autosampler 4 °C for 24 h” value ([2]; Liver homogenate, QC 1 ng/mL) was 93.1 ± 5.7. For the same molecule, the “Stability: Short-Term” value ([2]; Liver homogenate, QC 1 ng/mL) was 98.8 ± 6.8, the “Stability: Storage at −75°C for 30 d” value ([2]; Liver homogenate, QC 1 ng/mL) was 111.5 ± 6.9 and the “Stability: Three Freeze-Thraw Cycles” value ([2]; Liver homogenate, QC 1 ng/mL) was 101.5 ± 10.1. The “Stability: Autosampler 4 °C for 24 h” value ([2]; Liver homogenate, QC 5 ng/mL) was 95.3 ± 3.2, the “Stability: Short-Term” value ([2]; Liver homogenate, QC 5 ng/mL) was 95.4 ± 5.8 and the “Stability: Storage at −75°C for 30 d” value ([2]; Liver homogenate, QC 5 ng/mL) was 106.5 ± 10.1. The “Stability: Three Freeze-Thraw Cycles” value ([2]; Liver homogenate, QC 5 ng/mL) was 98.8 ± 9.9, the “Stability: Autosampler 4 °C for 24 h” value ([2]; Liver homogenate, QC 100 ng/mL) was 101.3 ± 5.6 and the “Stability: Short-Term” value ([2]; Liver homogenate, QC 100 ng/mL) was 111.0 ± 4.9. The “Stability: Storage at −75°C for 30 d” value ([2]; Liver homogenate, QC 100 ng/mL) was 105.4 ± 7.2, the “Stability: Three Freeze-Thraw Cycles” value ([2]; Liver homogenate, QC 100 ng/mL) was 108.4 ± 7.8 and the “Stability: Autosampler 4 °C for 24 h” value [2, 11] was 94.8 ± 7.7. The “Stability: Short-Term” value [2, 11] was 106.4 ± 6.0, the “Stability: Storage at −75°C for 30 d” value [2, 11] was 97.7 ± 6.8 and the “Stability: Three Freeze-Thraw Cycles” value [2, 11] was 98.3 ± 6.3. For the same molecule, the “Stability: Autosampler 4 °C for 24 h” value ([2]; Lung homogenate, QC 1 ng/mL) was 105.8 ± 7.0, the “Stability: Short-Term” value ([2]; Lung homogenate, QC 1 ng/mL) was 89.5 ± 7.6 and the “Stability: Storage at −75°C for 30 d” value ([2]; Lung homogenate, QC 1 ng/mL) was 103.4 ± 8.7. The “Stability: Three Freeze-Thraw Cycles” value ([2]; Lung homogenate, QC 1 ng/mL) was 108.2 ± 9.5, the “Stability: Autosampler 4 °C for 24 h” value ([2]; Lung homogenate, QC 5 ng/mL) was 103.4 ± 7.1 and the “Stability: Short-Term” value ([2]; Lung homogenate, QC 5 ng/mL) was 92.4 ± 6.4. The “Stability: Storage at −75°C for 30 d” value ([2]; Lung homogenate, QC 5 ng/mL) was 93.0 ± 9.6, the “Stability: Three Freeze-Thraw Cycles” value ([2]; Lung homogenate, QC 5 ng/mL) was 105.8 ± 8.7 and the “Stability: Autosampler 4 °C for 24 h” value ([2]; Lung homogenate, QC 100 ng/mL) was 98.4 ± 5.4. The “Stability: Short-Term” value ([2]; Lung homogenate, QC 100 ng/mL) was 106.4 ± 8.6, the “Stability: Storage at −75°C for 30 d” value ([2]; Lung homogenate, QC 100 ng/mL) was 101.0 ± 7.5 and the “Stability: Three Freeze-Thraw Cycles” value ([2]; Lung homogenate, QC 100 ng/mL) was 94.4 ± 2.6. For the same molecule, the “Stability: Autosampler 4 °C for 24 h” value ([2]; Lung homogenate, QC 1600 ng/mL) was 100.6 ± 9.7, the “Stability: Short-Term” value ([2]; Lung homogenate, QC 1600 ng/mL) was 91.2 ± 6.8 and the “Stability: Storage at −75°C for 30 d” value ([2]; Lung homogenate, QC 1600 ng/mL) was 92.3 ± 6.3. The “Stability: Three Freeze-Thraw Cycles” value ([2]; Lung homogenate, QC 1600 ng/mL) was 93.8 ± 4.6, the “Stability: Autosampler 4 °C for 24 h” value ([2]; Spleen homogenate, QC 1 ng/mL) was 108.0 ± 6.0 and the “Stability: Short-Term” value ([2]; Spleen homogenate, QC 1 ng/mL) was 108.5± 6.4. For the same molecule, the “Stability: Storage at −75°C for 30 d” value ([2]; Spleen homogenate, QC 1 ng/mL) was 102.3 ± 4.9, the “Stability: Three Freeze-Thraw Cycles” value ([2]; Spleen homogenate, QC 1 ng/mL) was 101.2 ± 7.4 and the “Stability: Autosampler 4 °C for 24 h” value ([2]; Spleen homogenate, QC 5 ng/mL) was 101.8 ± 4.3. For the same molecule, the “Stability: Short-Term” value ([2]; Spleen homogenate, QC 5 ng/mL) was 114.7 ± 5.8, the “Stability: Storage at −75°C for 30 d” value ([2]; Spleen homogenate, QC 5 ng/mL) was 98.1 ± 3.9 and the “Stability: Three Freeze-Thraw Cycles” value ([2]; Spleen homogenate, QC 5 ng/mL) was 106.2 ± 6.9. The “Stability: Autosampler 4 °C for 24 h” value [2, 12] was 92.9 ± 6.5, the “Stability: Short-Term” value [2, 12] was 107.5 ± 8.9 and the “Stability: Storage at −75°C for 30 d” value [2, 12] was 114.3 ± 6.6. For the same molecule, the “Stability: Three Freeze-Thraw Cycles” value [2, 12] was 105.3 ± 3.1, the “Stability: Autosampler 4 °C for 24 h” value [2, 13] was 102.1 ± 9.3 and the “Stability: Short-Term” value [2, 13] was 104.4 ± 6.1. The “Stability: Storage at −75°C for 30 d” value [2, 13] was 104.0 ± 3.2 and the “Stability: Three Freeze-Thraw Cycles” value [2, 13] was 92.9 ± 7.6.

From publication PMC6749364, “Pharmacokinetics and Tissue Distribution of Alnustone in Rats after Intravenous Administration by Liquid Chromatography-Mass Spectrometry” (Molecules, 2019)
